# From patent US20260184675A1, “CHIRAL ISOMERIC SULFITE COMPOUND AND APPLICATION THEREOF” (Chengdu Hanova BioSciences Co., Ltd, priority 2024, published 2026)
# Assays:
# eggs of Panonychus citri = test: Effect on hatching of eggs of Panonychus citri, leaf disc method; type: in vivo; details: 1 ppm; for Hatching rate (%), Replicate 1 / Hatching rate (%), Replicate 2 / Hatching rate (%), Replicate 3 / Number of hatched larvae 5 days after insecticide delivery, Replicate 1 / Number of hatched larvae 5 days after insecticide delivery, Replicate 2 / Number of hatched larvae 5 days after insecticide delivery, Replicate 3: Panonychus citri eggs; for Hatching rate (%), Replicate 1 / Hatching rate (%), Replicate 2 / Hatching rate (%), Replicate 3: 5 days after delivery; for Number of hatched larvae 5 days after insecticide delivery, Replicate 1 / Number of hatched larvae 5 days after insecticide delivery, Replicate 2 / Number of hatched larvae 5 days after insecticide delivery, Replicate 3: leaf disc
# eggs of Aleyrodidae = test: Effect on hatching of eggs of Aleyrodidae, leaf disc method; type: in vivo; details: 10 ppm; for Hatching rate (%), Replicate 1 / Hatching rate (%), Replicate 2 / Hatching rate (%), Replicate 3 / Number of hatched larvae 5 days after insecticide delivery, Replicate 1 / Number of hatched larvae 5 days after insecticide delivery, Replicate 2 / Number of hatched larvae 5 days after insecticide delivery, Replicate 3: Aleyrodidae eggs; for Hatching rate (%), Replicate 1 / Hatching rate (%), Replicate 2 / Hatching rate (%), Replicate 3: 5 days after delivery; for Number of hatched larvae 5 days after insecticide delivery, Replicate 1 / Number of hatched larvae 5 days after insecticide delivery, Replicate 2 / Number of hatched larvae 5 days after insecticide delivery, Replicate 3: leaf disc
# In short: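 Leaf discs carrying Aleyrodidae eggs were first examined microscopically to record a baseline egg count. They were then dipped for 10 seconds in compound solution at 10 ppm or in clear water, taken out, and incubated with humidity maintained. Five days after delivery, the number of hatched larvae was recorded to assess hatching inhibition.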
# [1] = tested on: eggs of Spodoptera litura; test: Effect on hatching of eggs of Spodoptera litura, egg piece soaking; type: in vivo; details: 500 ppm; for Hatching rate (%), Replicate 1 / Hatching rate (%), Replicate 2 / Hatching rate (%), Replicate 3 / Number of unhatched larvae 4 days after insecticide delivery, Replicate 1 / Number of unhatched larvae 4 days after insecticide delivery, Replicate 2 / Number of unhatched larvae 4 days after insecticide delivery, Replicate 3: Spodoptera litura eggs; for Hatching rate (%), Replicate 1 / Hatching rate (%), Replicate 2 / Hatching rate (%), Replicate 3: 4 days after delivery; for Number of unhatched larvae 4 days after insecticide delivery, Replicate 1 / Number of unhatched larvae 4 days after insecticide delivery, Replicate 2 / Number of unhatched larvae 4 days after insecticide delivery, Replicate 3: soaked 10 minutes
# In short: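 Egg pieces of about 60 eggs were soaked 10 min in test agent at 500 ppm, blotted, then held singly at 24±1 °C, 80±10% RH, 12:12 L:D. Hatched and unhatched eggs were counted on day 4 to give hatching rate and control effect; 3 replicates.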
# [2] = tested on: eggs of Harmonia axyridis; test: Effect on hatching of eggs of Harmonia axyridis, egg card immersion; type: in vivo; details: 100 ppm; for Number of hatched larvae 4 days after insecticide delivery, Replicate 1 / Number of hatched larvae 4 days after insecticide delivery, Replicate 2 / Number of hatched larvae 4 days after insecticide delivery, Replicate 3: Harmonia axyridis egg cards, immersed 30 seconds; for Hatching rate (%), Replicate 1 / Hatching rate (%), Replicate 2 / Hatching rate (%), Replicate 3: Harmonia axyridis eggs, 4 days after delivery
# In short: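 Egg cards (~20 eggs each) dipped 30 s in 100 ppm insecticide, air dried and kept moist at 27° C; 5 cards per treatment, 3 replicates. Hatching assessed 4 days after treatment against pre-treatment egg counts, and control effect calculated by formula.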
# Magnaporthe grisea = type: cell-based; details: 100 ppm; for Average antifungal rate (%) / Antifungal rate of Magnaporthe grisea (%), Replicate 1 / Antifungal rate of Magnaporthe grisea (%), Replicate 2 / Antifungal rate of Magnaporthe grisea (%), Replicate 3: 96-well plate; for Average antifungal rate (%): average of 3 replicates
compound,measurement,setting,value
"CCC(COc1ccc(Cl)cc1Cl)OS(=O)OCCF [19-(R,R)]","Hatching rate (%), Replicate 1","eggs of Panonychus citri; listed as 19-(R, R)",7.52%
same,"Hatching rate (%), Replicate 2","eggs of Panonychus citri; listed as 19-(R, R)",8.41%
same,"Hatching rate (%), Replicate 3","eggs of Panonychus citri; listed as 19-(R, R)",8.33%
same,"Number of hatched larvae 5 days after insecticide delivery, Replicate 1","eggs of Panonychus citri; listed as 19-(R, R)",10
same,"Number of hatched larvae 5 days after insecticide delivery, Replicate 2","eggs of Panonychus citri; listed as 19-(R, R)",9
same,"Number of hatched larvae 5 days after insecticide delivery, Replicate 3","eggs of Panonychus citri; listed as 19-(R, R)",7
same,"Hatching rate (%), Replicate 1","eggs of Aleyrodidae; listed as 19-(R, R)",11.96%
same,"Hatching rate (%), Replicate 2","eggs of Aleyrodidae; listed as 19-(R, R)",10.20%
same,"Hatching rate (%), Replicate 3","eggs of Aleyrodidae; listed as 19-(R, R)",11.20%
same,"Number of hatched larvae 5 days after insecticide delivery, Replicate 1","eggs of Aleyrodidae; listed as 19-(R, R)",11
same,"Number of hatched larvae 5 days after insecticide delivery, Replicate 2","eggs of Aleyrodidae; listed as 19-(R, R)",10
same,"Number of hatched larvae 5 days after insecticide delivery, Replicate 3","eggs of Aleyrodidae; listed as 19-(R, R)",14
same,"Hatching rate (%), Replicate 1","[1]; listed as 19-(R, R)",50.85%
same,"Hatching rate (%), Replicate 2","[1]; listed as 19-(R, R)",51.61%
same,"Hatching rate (%), Replicate 3","[1]; listed as 19-(R, R)",50.79%
same,"Number of unhatched larvae 4 days after insecticide delivery, Replicate 1","[1]; listed as 19-(R, R)",29
same,"Number of unhatched larvae 4 days after insecticide delivery, Replicate 2","[1]; listed as 19-(R, R)",30
same,"Number of unhatched larvae 4 days after insecticide delivery, Replicate 3","[1]; listed as 19-(R, R)",31
same,"Number of hatched larvae 4 days after insecticide delivery, Replicate 1","[2]; listed as 19-(R, R)",14
same,"Number of hatched larvae 4 days after insecticide delivery, Replicate 2","[2]; listed as 19-(R, R)",15
same,"Number of hatched larvae 4 days after insecticide delivery, Replicate 3","[2]; listed as 19-(R, R)",14
same,"Hatching rate (%), Replicate 1","[2]; listed as 19-(R, R)",14.43%
same,"Hatching rate (%), Replicate 2","[2]; listed as 19-(R, R)",14.42%
same,"Hatching rate (%), Replicate 3","[2]; listed as 19-(R, R)",13.73%
same,inhibitory rate against Magnaporthe grisea (in words),Magnaporthe grisea,strong inhibitory rate
same,Average antifungal rate (%),Magnaporthe grisea,82.77%
same,"Antifungal rate of Magnaporthe grisea (%), Replicate 1",Magnaporthe grisea,81.29%
same,"Antifungal rate of Magnaporthe grisea (%), Replicate 2",Magnaporthe grisea,83.56%
same,"Antifungal rate of Magnaporthe grisea (%), Replicate 3",Magnaporthe grisea,83.45%
"CC[C@H](COc1ccc(Cl)cc1Cl)OS(=O)OCCF (stereo partly drawn) [19-(R,S)]",inhibitory effect on the hatching of eggs of Panonychus citri (in words),eggs of Panonychus citri,good inhibitory effects
same,"Hatching rate (%), Replicate 1",eggs of Panonychus citri,0.00%
same,"Hatching rate (%), Replicate 2",eggs of Panonychus citri,0.00%
same,"Hatching rate (%), Replicate 3",eggs of Panonychus citri,0.00%
same,"Number of hatched larvae 5 days after insecticide delivery, Replicate 1",eggs of Panonychus citri,0
same,"Number of hatched larvae 5 days after insecticide delivery, Replicate 2",eggs of Panonychus citri,0
same,"Number of hatched larvae 5 days after insecticide delivery, Replicate 3",eggs of Panonychus citri,0
same,inhibitory activity on the hatching of eggs of Aleyrodidae (in words),eggs of Aleyrodidae,strong inhibitory activities
same,"Hatching rate (%), Replicate 1",eggs of Aleyrodidae,0.00%
same,"Hatching rate (%), Replicate 2",eggs of Aleyrodidae,0.00%
same,"Hatching rate (%), Replicate 3",eggs of Aleyrodidae,0.00%
same,"Number of hatched larvae 5 days after insecticide delivery, Replicate 1",eggs of Aleyrodidae,0
same,"Number of hatched larvae 5 days after insecticide delivery, Replicate 2",eggs of Aleyrodidae,0
same,"Number of hatched larvae 5 days after insecticide delivery, Replicate 3",eggs of Aleyrodidae,0
same,inhibitory activity on the hatching of eggs of Spodoptera litura (in words),[1],good inhibitory activities
same,"Hatching rate (%), Replicate 1",[1],15.63%
same,"Hatching rate (%), Replicate 2",[1],15.25%
same,"Hatching rate (%), Replicate 3",[1],16.67%
same,"Number of unhatched larvae 4 days after insecticide delivery, Replicate 1",[1],54
same,"Number of unhatched larvae 4 days after insecticide delivery, Replicate 2",[1],50
same,"Number of unhatched larvae 4 days after insecticide delivery, Replicate 3",[1],50
same,inhibitory activity on the hatching of eggs of Harmonia axyridis (in words),[2],strong inhibitory activities
same,"Number of hatched larvae 4 days after insecticide delivery, Replicate 1",[2],0
same,"Number of hatched larvae 4 days after insecticide delivery, Replicate 2",[2],0
same,"Number of hatched larvae 4 days after insecticide delivery, Replicate 3",[2],0
same,"Hatching rate (%), Replicate 1",[2],0.00%
same,"Hatching rate (%), Replicate 2",[2],0.00%
same,"Hatching rate (%), Replicate 3",[2],0.00%
same,inhibitory rate against Magnaporthe grisea (in words),Magnaporthe grisea,strong inhibitory rate
same,Average antifungal rate (%),Magnaporthe grisea,100.04%
same,"Antifungal rate of Magnaporthe grisea (%), Replicate 1",Magnaporthe grisea,99.73%
same,"Antifungal rate of Magnaporthe grisea (%), Replicate 2",Magnaporthe grisea,100.15%
same,"Antifungal rate of Magnaporthe grisea (%), Replicate 3",Magnaporthe grisea,100.24%
"CC[C@@H](COc1ccc(Cl)cc1Cl)OS(=O)OCCF (stereo partly drawn) [19-(S,R)]",inhibitory effect on the hatching of eggs of Panonychus citri (in words),eggs of Panonychus citri,good inhibitory effects
same,"Hatching rate (%), Replicate 1",eggs of Panonychus citri,0.00%
same,"Hatching rate (%), Replicate 2",eggs of Panonychus citri,0.00%
same,"Hatching rate (%), Replicate 3",eggs of Panonychus citri,0.00%
same,"Number of hatched larvae 5 days after insecticide delivery, Replicate 1",eggs of Panonychus citri,0
same,"Number of hatched larvae 5 days after insecticide delivery, Replicate 2",eggs of Panonychus citri,0
same,"Number of hatched larvae 5 days after insecticide delivery, Replicate 3",eggs of Panonychus citri,0
same,inhibitory activity on the hatching of eggs of Aleyrodidae (in words),eggs of Aleyrodidae,strong inhibitory activities
same,"Hatching rate (%), Replicate 1",eggs of Aleyrodidae,0.00%
same,"Hatching rate (%), Replicate 2",eggs of Aleyrodidae,0.00%
same,"Hatching rate (%), Replicate 3",eggs of Aleyrodidae,0.00%
same,"Number of hatched larvae 5 days after insecticide delivery, Replicate 1",eggs of Aleyrodidae,0
same,"Number of hatched larvae 5 days after insecticide delivery, Replicate 2",eggs of Aleyrodidae,0
same,"Number of hatched larvae 5 days after insecticide delivery, Replicate 3",eggs of Aleyrodidae,0
same,inhibitory activity on the hatching of eggs of Spodoptera litura (in words),[1],good inhibitory activities
same,"Hatching rate (%), Replicate 1",[1],15.79%
same,"Hatching rate (%), Replicate 2",[1],15.38%
same,"Hatching rate (%), Replicate 3",[1],15.38%
same,"Number of unhatched larvae 4 days after insecticide delivery, Replicate 1",[1],48
same,"Number of unhatched larvae 4 days after insecticide delivery, Replicate 2",[1],55
same,"Number of unhatched larvae 4 days after insecticide delivery, Replicate 3",[1],44
same,inhibitory activity on the hatching of eggs of Harmonia axyridis (in words),[2],strong inhibitory activities
same,"Number of hatched larvae 4 days after insecticide delivery, Replicate 1",[2],0
same,"Number of hatched larvae 4 days after insecticide delivery, Replicate 2",[2],0
same,"Number of hatched larvae 4 days after insecticide delivery, Replicate 3",[2],0
same,"Hatching rate (%), Replicate 1",[2],0.00%
same,"Hatching rate (%), Replicate 2",[2],0.00%
same,"Hatching rate (%), Replicate 3",[2],0.00%
same,inhibitory rate against Magnaporthe grisea (in words),Magnaporthe grisea,strong inhibitory rate
same,Average antifungal rate (%),Magnaporthe grisea,99.77%
same,"Antifungal rate of Magnaporthe grisea (%), Replicate 1",Magnaporthe grisea,100.10%
same,"Antifungal rate of Magnaporthe grisea (%), Replicate 2",Magnaporthe grisea,99.34%
same,"Antifungal rate of Magnaporthe grisea (%), Replicate 3",Magnaporthe grisea,99.87%
